Data taken from paper PMC8952364, “Polyphenols as Inhibitors of Antibiotic Resistant Bacteria—Mechanisms Underlying Rutin Interference with Bacterial Virulence” (Pharmaceuticals, 2022).
Values after ≈ are worked out from the molar mass of the structure shown.

Experiments:
[1] = system: A. xylosoxidans 37F; test: Antimicrobial microdilution assay (MIC/MBC); assay type: cell-based, Achromobacter xylosoxidans; settings: Achromobacter xylosoxidans, 37F
Outline: (§1)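 Polyphenols 0.0039–1 mg/mL, stocks in 30% ethanol; inoculum 0.5 McFarland diluted twenty-fold, mixed 1:10; 24 h, 37 °C. MIC = no visible growth (binocular microscope). Streptomycin positive control, ethanol negative control; triplicate.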

[2] = system: A. baumannii S2/2; test: Antimicrobial microdilution assay (MIC/MBC); assay type: cell-based, Acinetobacter baumannii; settings: Acinetobacter baumannii, S2/2
Outline: as §1

[3] = system: A. baumannii 6077/12; test: Antimicrobial microdilution assay (MIC/MBC); assay type: cell-based, Acinetobacter baumannii; settings: Acinetobacter baumannii, 6077/12
Outline: as §1

[4] = system: P. aeruginosa IBRS P001 biofilm; test: Biofilm MTT assay (biofilm formation); assay type: cell-based, Pseudomonas aeruginosa; settings: rutin MIC, co-incubation 24 h
Description: The impact of rutin on P. aeruginosa IBRS P001 biofilm formation was determined as previously described by estimating the metabolic activity of microbial cells using an MTT assay. […] The supernatants were then ejected and the biofilms washed with PBS. MTT reagent (200 μL, 0.5 mg/mL) was added and the plate was incubated at 37 °C in the dark for 2 h. The resulting dye was dissolved in DMSO and the absorbance was measured at 570 nm in a microtiter plate reader Multiskan™ FC Microplate Photometer, Thermo Scientific™. The inhibition percentage of biofilm cell viability was calculated:%Inhibition = [(A570control − A570sample)/A570control] × 100
With A570control representing the absorbance of untreated sample, and A570sample representing the absorbance of the rutin treated sample. A solvent-treated sample was used as the control.

[5] = system: HaCaT cells; test: Cytotoxicity in HaCaT cell line (crystal violet assay); assay type: cell-based, human; settings: Homo sapiens, HaCaT, 24 h, read-out: IC50 (compound concentration that inhibited 50% of the cell growth)
Outline: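 HaCaT keratinocytes seeded 1 × 10^4 cells/well 24 h before treatment, then exposed to polyphenols for 24 h. Viable cells stained with crystal violet, absorbance at 590 nm. IC50 in μg/mL, triplicate with three readings each, mean ± SD.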

[6] = system: MRSA IBRS MRSA 011; test: Bacterial adhesion to HaCaT cells; assay type: cell-based, Staphylococcus aureus
Description: HaCaT cells were grown until confluence in 24-well plates with an adhesive bottom. The medium was removed and DMEM without FBS containing the rutin (MIC and 0.5 MIC) was added. The samples were incubated at 37 °C for 15 min, and bacteria (P. aeruginosa IBRS P001 and MRSA IBRS MRSA 011) were added. After incubation at 37 °C for 1 h, the cells were washed three times with DMEM without FBS and lyzed with 1 mL of 1% (v/v) Tween-20 (SigmaAldrich, Germany) at 37 °C for 30 min. Afterwards, dilutions of the bacterial suspension in each well were made and seeded on Plate Count Agar plates. The number of CFU was determined after incubation at 37 °C for 18 h, and the percentage of adhered bacterial cells was calculated following the equation:% (adhesion relative to the control) = 100 × CFU (treated)/CFU (control)
With CFU (treated) representing the number of CFUs after the treatment of cells with rutin and CFU (control) representing the number of bacterial CFUs in the untreated sample. The solvent treated sample was used as the control.

[7] = system: MRSA IBRS MRSA 011; assay type: cell-based, Staphylococcus aureus
Description: For the catheter biofilm eradication assay, P. aeruginosa and MRSA were incubated in TSB with 2% glucose with 1 cm long catheters in 24-well plates at 37 °C for 24 h. […] Subsequently, the catheters were washed and treated, as described above.

[8] = system: E. coli IBRS E003; test: Antimicrobial microdilution assay (MIC/MBC); assay type: cell-based, Escherichia coli; settings: Escherichia coli, IBRSE003
Outline: as §1

[9] = system: E. coli IMD989; test: Antimicrobial microdilution assay (MIC/MBC); assay type: cell-based, Escherichia coli; settings: Escherichia coli, IMD989
Outline: as §1

[10] = system: S. infantis 1371/1; test: Antimicrobial microdilution assay (MIC/MBC); assay type: cell-based, Salmonella Infantis; settings: Salmonella enterica, 1371/1
Outline: as §1

[11] = subcultivation, 24 h at 37 °C, read-out: MBC

## C[C@@H]1O[C@@H](OC[C@H]2O[C@@H](Oc3c(-c4ccc(O)c(O)c4)oc4cc(O)cc(O)c4c3=O)[C@H](O)[C@@H](O)[C@@H]2O)[C@H](O)[C@H](O)[C@H]1O [Rutin, rutin]
[1]; 37 °C, 24 h, read-out: MIC
  MIC: 500 µg/mL (≈ 819 µM)
[1]; [11]
  MBC: 1000 µg/mL (≈ 1640 µM)
[2]; 37 °C, 24 h, read-out: MIC
  MIC: 500 µg/mL (≈ 819 µM)
[2]; [11]
  MBC: 500 µg/mL (≈ 819 µM)
[3]; 37 °C, 24 h, read-out: MIC
  MIC: 500 µg/mL (≈ 819 µM)
[3]; [11]
  MBC: 500 µg/mL (≈ 819 µM)
[4]
  reduction of metabolic activity of cells forming the biofilm: 88%
[5]
  IC50: > 1000 µg/mL
[6]; Staphylococcus aureus, MRSA, Keratinocyte, read-out: reduction of CFU adhered to human keratinocytes (inhibition)
  inhibition at 250 µg/mL: 19%
[6]; rutin MIC
  reduction of CFU adhered to human keratinocytes: 63%
[7]; 2 MBC, 24 h old biofilm
  catheter biofilm eradicated: 74.2%
[7]; 24 h old catheter biofilm, concentration not printed (MBC-4MBC tested, probably 4 MBC)
  biofilm cells remained viable after the treatment: 9.6%
[8]; 37 °C, 24 h, read-out: MIC
  MIC: > 1000 µg/mL
[8]; [11]
  MBC: > 1000 µg/mL
[9]; 37 °C, 24 h, read-out: MIC
  MIC: 1000 µg/mL (≈ 1640 µM)
[9]; [11]
  MBC: 1000 µg/mL (≈ 1640 µM)
[10]; 37 °C, 24 h, read-out: MIC
  MIC: 1000 µg/mL (≈ 1640 µM)
[10]; [11]
  MBC: 1000 µg/mL (≈ 1640 µM)
